Like-named read-outs stand apart in the source and are kept apart here.
Key:
[1] = target: purified class A, C and D enzymes (β-lactamases) (Klebsiella pneumoniae, UniProt Q6XEC0); assay: biochemical; assay type: biochemical
[2] = target: purified class A, C and D enzymes (β-lactamases) (Enterobacter cloacae, UniProt P05364); assay: biochemical; assay type: biochemical
[3] = target: purified class A, C and D enzymes (β-lactamases) (Klebsiella pneumoniae, UniProt Q9F663); assay: biochemical; assay type: biochemical
[4] = target: T1, purified class A, C and D enzymes (β-lactamases) (Acinetobacter baumannii, UniProt Q9L4P2); assay: biochemical; assay type: biochemical; details: purified OXA-23; nitrocefin (NCF) as reporter substrate
T1 construct: rows headed: Ki (OXA-23, NCF), uM; other: purified OXA-23; nitrocefin (NCF) as reporter substrate

[5] = target: T2, purified class A, C and D enzymes (β-lactamases) (Pseudomonas aeruginosa, UniProt P24735); assay: biochemical; assay type: biochemical
T2 construct: rows headed: Ki (Pa-AmpC, NCF), uM; other: purified Pa-AmpC; nitrocefin (NCF) as reporter substrate

EC1010 CMY-6 = assay: Aztreonam potentiation (MPC@4), strain EC1010 CMY-6; details: minimum BLI concentration inhibiting growth with aztreonam 4 μg/mL; tested up to 40 μg/mL
AB1053 OXA-72 = assay: Meropenem potentiation (MPC@8), strain AB1053 OXA-72; assay type: cell-based, Acinetobacter baumannii; details: for MPM MPC8 AB1053 OXA-72: minimum BLI concentration inhibiting growth with meropenem 8 μg/mL, tested up to 20 μg/mL
ec302 TEM-10 = assay: Aztreonam potentiation (MPC@4), strain ec302 TEM-10; details: minimum BLI concentration inhibiting growth with aztreonam 4 μg/mL; tested up to 40 μg/mL
KP1005 CTX-M-14 = assay: Tigemonam potentiation (MPC@4), strain KP1005 CTX-M-14; details: minimum BLI concentration inhibiting growth with tigemonam 4 μg/mL; tested up to 40 μg/mL
KP1009 CTX-M-15 = assay: Aztreonam potentiation (MPC@4), strain KP1009 CTX-M-15; details: minimum BLI concentration inhibiting growth with aztreonam 4 μg/mL; tested up to 40 μg/mL
KP1004 KPC-2 [6] = assay: Biapenem potentiation (MPC@1), strain KP1004 KPC-2; assay type: cell-based; details: minimum BLI concentration inhibiting growth with biapenem 1 μg/mL; tested up to 40 μg/mL
Procedure: (§1) Biapenem was present in the test medium at 1 μg/mL. […] Table 3 summarizes the BLI potency of biapenem potentiation (MPC@1) for two strains overexpressing class A (KPC) and class D (OXA-48) carbapenemases. Biapenem MIC for each strain is also shown.

ec308 SHV-5 = assay: Aztreonam potentiation (MPC@4), strain ec308 SHV-5; details: minimum BLI concentration inhibiting growth with aztreonam 4 μg/mL; tested up to 40 μg/mL
ECL1002 = assay: Aztreonam potentiation (MPC@4), strain ECL1002; details: minimum BLI concentration inhibiting growth with aztreonam 4 μg/mL; tested up to 40 μg/mL
KP1010 SHV-12 = assay: Aztreonam potentiation (MPC@4), strain KP1010 SHV-12; details: minimum BLI concentration inhibiting growth with aztreonam 4 μg/mL; tested up to 40 μg/mL
KP1004 KPC-2 [7] = assay: Aztreonam potentiation (MPC@4), strain KP1004 KPC-2; details: minimum BLI concentration inhibiting growth with aztreonam 4 μg/mL; tested up to 40 μg/mL
KP1086 OXA-48 = assay: Biapenem potentiation (MPC@1), strain KP1086 OXA-48; assay type: cell-based; details: minimum BLI concentration inhibiting growth with biapenem 1 μg/mL; tested up to 40 μg/mL
Procedure: as §1

AB1054 OXA-23 = assay: Meropenem potentiation (MPC@8), strain AB1054 OXA-23; assay type: cell-based, Acinetobacter baumannii; details: for MPM MPC8 AB1054 OXA-23: minimum BLI concentration inhibiting growth with meropenem 8 μg/mL, tested up to 20 μg/mL
[8] = purified OXA-48, nitrocefin (NCF) as reporter substrate
[9] = purified KPC-2, nitrocefin (NCF) as reporter substrate
[10] = purified P99, nitrocefin (NCF) as reporter substrate
[11] = purified Pa-AmpC, nitrocefin (NCF) as reporter substrate, read-out: Ki (Pa-AmpC, NCF)

Row | SMILES | Ki (OXA-48, NCF), uM [1, 8] | Ki (P99, NCF), uM [2] | Ki (KPC-2, NCF), uM [3, 9] | Ki [4] [nM] | Ki [5] [nM] | AZT MPC4 CMY-6 EC1010 (EC1010 CMY-6) | MPM MPC8 AB1053 OXA-72 (AB1053 OXA-72) | AZT MPC4 TEM-10 ec302 (ec302 TEM-10) | TIG MPC4 CTX-M-14 KP1005 (KP1005 CTX-M-14) | AZT MPC4 CTX-M-15 KP1009 (KP1009 CTX-M-15) | BPM MPC1 KP1004 KPC-2 (KP1004 KPC-2 [6]) | AZT MPC4 SHV-5 ec308 (ec308 SHV-5) | AZT MPC4 ECL1002 (ECL1002) | AZT MPC4 SHV-12 KP1010 (KP1010 SHV-12) | AZT MPC4 KPC-2 KP1004 (KP1004 KPC-2 [7]) | BPM MPC1 OXA-48 KP1086 (KP1086 OXA-48) | MPM MPC8 AB1054 OXA-23 (AB1054 OXA-23) | other results
1 | O=C([O-])c1c(OCC#CCO)ccc2c1O[B-](O)(O)CC2.[Na+].[Na+] [Compound 30, Disodium; 4,4-dihydroxy-8-(4-hydroxybut-2-ynoxy)-5-oxa-4-boranuidabicyclo[4.4.0]deca-1(6),7,9-triene-7-carboxylate] | X (X = Ki ≤ 0.1 μM) | X (key: X = Ki ≤ 0.1 μM; Y = 0.1 μM < Ki ≤ 1 μM; Z = Ki > 1 μM) | X (X = Ki ≤ 0.1 μM) | < 100 | < 100 | X (X = MPC@4 ≤ 5 μg/mL) | X (X = MPC@1 ≤ 5 μg/mL) | X (X = MPC@4 ≤ 5 μg/mL) | Y (Y = 5 μg/mL < MPC@4 ≤ 20 μg/mL) | X (X = MPC@4 ≤ 5 μg/mL) | X (X = MPC@1 ≤ 5 μg/mL) | X (X = MPC@4 ≤ 5 μg/mL) | X (X = MPC@4 ≤ 5 μg/mL) | X (X = MPC@4 ≤ 5 μg/mL) | X (X = MPC@4 ≤ 5 μg/mL) | Y (Y = 5 μg/mL < MPC@1 ≤ 20 μg/mL) | X (X = MPC@1 ≤ 5 μg/mL) | –
2 | O=C(O)c1c(OC(CO)CO)ccc2c1OB(O)CC2 [Compound 44, 2-hydroxy-7-[2-hydroxy-1-(hydroxymethyl)ethoxy]-3,4-dihydro-1,2-benzoxaborinine-8-carboxylic acid] | X (X = Ki ≤ 0.1 μM) | – | X (X = Ki ≤ 0.1 μM) | < 100 | – | X (X = MPC@4 ≤ 5 μg/mL) | X (X = MPC@1 ≤ 5 μg/mL) | Y (Y = 5 μg/mL < MPC@4 ≤ 20 μg/mL) | Z (Z = MPC@4 > 20 μg/mL) | Y (Y = 5 μg/mL < MPC@4 ≤ 20 μg/mL) | X (X = MPC@1 ≤ 5 μg/mL) | Y (Y = 5 μg/mL < MPC@4 ≤ 20 μg/mL) | Y (Y = 5 μg/mL < MPC@4 ≤ 20 μg/mL) | X (X = MPC@4 ≤ 5 μg/mL) | X (X = MPC@4 ≤ 5 μg/mL) | X (X = MPC@1 ≤ 5 μg/mL) | Y (Y = 5 μg/mL < MPC@1 ≤ 20 μg/mL) | Ki (P99, NCF), uM [2, 10]: X (X = Ki ≤ 0.1 μM); Ki [5, 11]: < 100 nM
3 | O=C([O-])c1cc(F)cc2c1O[B-](O)(O)CC2.[Na+].[Na+] [Compound 37, Disodium; 9-fluoro-4,4-dihydroxy-5-oxa-4-boranuidabicyclo[4.4.0]deca-1(6),7,9-triene-7-carboxylate] | X (X = Ki ≤ 0.1 μM) | X (key: X = Ki ≤ 0.1 μM; Y = 0.1 μM < Ki ≤ 1 μM; Z = Ki > 1 μM) | X (X = Ki ≤ 0.1 μM) | < 100 | < 100 | X (X = MPC@4 ≤ 5 μg/mL) | Z (Z = MPC@1 > 20 μg/mL) | Y (Y = 5 μg/mL < MPC@4 ≤ 20 μg/mL) | Z (Z = MPC@4 > 20 μg/mL) | Y (Y = 5 μg/mL < MPC@4 ≤ 20 μg/mL) | X (X = MPC@1 ≤ 5 μg/mL) | Y (Y = 5 μg/mL < MPC@4 ≤ 20 μg/mL) | Y (Y = 5 μg/mL < MPC@4 ≤ 20 μg/mL) | X (X = MPC@4 ≤ 5 μg/mL) | X (X = MPC@4 ≤ 5 μg/mL) | X (X = MPC@1 ≤ 5 μg/mL) | Z (Z = MPC@1 > 20 μg/mL) | –
4 | CSc1ccc2c(c1C(=O)[O-])O[B-](O)(O)CC2.[Na+].[Na+] [Compound 36, Disodium; 4,4-dihydroxy-8-methylsulfanyl-5-oxa-4-boranuidabicyclo[4.4.0]deca-1(6),7,9-triene-7-carboxylate] | X (X = Ki ≤ 0.1 μM) | X (key: X = Ki ≤ 0.1 μM; Y = 0.1 μM < Ki ≤ 1 μM; Z = Ki > 1 μM) | X (X = Ki ≤ 0.1 μM) | < 100 | < 100 | X (X = MPC@4 ≤ 5 μg/mL) | Y (Y = 5 μg/mL < MPC@1 ≤ 20 μg/mL) | X (X = MPC@4 ≤ 5 μg/mL) | Y (Y = 5 μg/mL < MPC@4 ≤ 20 μg/mL) | Y (Y = 5 μg/mL < MPC@4 ≤ 20 μg/mL) | X (X = MPC@1 ≤ 5 μg/mL) | X (X = MPC@4 ≤ 5 μg/mL) | X (X = MPC@4 ≤ 5 μg/mL) | X (X = MPC@4 ≤ 5 μg/mL) | X (X = MPC@4 ≤ 5 μg/mL) | X (X = MPC@1 ≤ 5 μg/mL) | X (X = MPC@1 ≤ 5 μg/mL) | –
5 | C[C@@H](O)[C@H]1C(=O)N2C(C(=O)O)=C(S[C@@H]3CN[C@H](C(=O)N(C)C)C3)[C@H](C)[C@H]12 [Meropenem, reference compound] | – | – | – | – | – | – | – | – | – | – | – | – | – | – | – | – | – | MIC (AB1053 OXA-72; Acinetobacter baumannii, strain AB1053 OXA-72, meropenem alone): > 64 µg/mL; MIC (AB1054 OXA-23; Acinetobacter baumannii, strain AB1054 OXA-23, meropenem alone): 32 µg/mL
6 | N#CCOc1ccc2c(c1C(=O)O)OB(O)CC2 [Compound 47, 7-(Cyanomethoxy)-2-hydroxy-3,4-dihydro-1,2-benzoxaborinine-8-carboxylic acid] | X (X = Ki ≤ 0.1 μM) | – | X (X = Ki ≤ 0.1 μM) | < 100 | – | X (X = MPC@4 ≤ 5 μg/mL) | X (X = MPC@1 ≤ 5 μg/mL) | X (X = MPC@4 ≤ 5 μg/mL) | X (X = MPC@4 ≤ 5 μg/mL) | X (X = MPC@4 ≤ 5 μg/mL) | X (X = MPC@1 ≤ 5 μg/mL) | X (X = MPC@4 ≤ 5 μg/mL) | X (X = MPC@4 ≤ 5 μg/mL) | X (X = MPC@4 ≤ 5 μg/mL) | X (X = MPC@4 ≤ 5 μg/mL) | X (X = MPC@1 ≤ 5 μg/mL) | X (X = MPC@1 ≤ 5 μg/mL) | Ki (P99, NCF), uM [2, 10]: X (X = Ki ≤ 0.1 μM); Ki [5, 11]: < 100 nM
7 | C[C@]1(Cn2ccnn2)[C@H](C(=O)O)N2C(=O)C[C@H]2S1(=O)=O [Tazobactam, reference compound] | – | – | – | – | – | Y (Y = 5 μg/mL < MPC@4 ≤ 20 μg/mL) | – | X (X = MPC@4 ≤ 5 μg/mL) | Y (Y = 5 μg/mL < MPC@4 ≤ 20 μg/mL) | Y (Y = 5 μg/mL < MPC@4 ≤ 20 μg/mL) | Z (Z = MPC@1 > 20 μg/mL) | Y (Y = 5 μg/mL < MPC@4 ≤ 20 μg/mL) | Z (Z = MPC@4 > 20 μg/mL) | X (X = MPC@4 ≤ 5 μg/mL) | Z (Z = MPC@4 > 20 μg/mL) | Y (Y = 5 μg/mL < MPC@1 ≤ 20 μg/mL) | – | Ki (OXA-48, NCF), uM [1]: Y (key: X = Ki ≤ 0.1 μM; Y = 0.1 μM < Ki ≤ 1 μM; Z = Ki > 1 μM); Ki (KPC-2, NCF), uM [3]: Z (key: X = Ki ≤ 0.1 μM; Y = 0.1 μM < Ki ≤ 1 μM; Z = Ki > 1 μM)
8 | C[S+]([O-])c1ccc2c(c1C(=O)[O-])O[B-](O)(O)CC2.[Na+].[Na+] (stereo not shown) [Compound 40, Disodium; 4,4-dihydroxy-8-methylsulfinyl-5-oxa-4-boranuidabicyclo[4.4.0]deca-1(6),7,9-triene-7-carboxylate] | X (X = Ki ≤ 0.1 μM) | X (key: X = Ki ≤ 0.1 μM; Y = 0.1 μM < Ki ≤ 1 μM; Z = Ki > 1 μM) | X (X = Ki ≤ 0.1 μM) | – | < 100 | X (X = MPC@4 ≤ 5 μg/mL) | Z (Z = MPC@1 > 20 μg/mL) | X (X = MPC@4 ≤ 5 μg/mL) | X (X = MPC@4 ≤ 5 μg/mL) | X (X = MPC@4 ≤ 5 μg/mL) | X (X = MPC@1 ≤ 5 μg/mL) | X (X = MPC@4 ≤ 5 μg/mL) | X (X = MPC@4 ≤ 5 μg/mL) | X (X = MPC@4 ≤ 5 μg/mL) | X (X = MPC@4 ≤ 5 μg/mL) | X (X = MPC@1 ≤ 5 μg/mL) | Z (Z = MPC@1 > 20 μg/mL) | –
